Measured values: publication PMC10579241, “Impact of trifluoromethyl and sulfonyl groups on the biological activity of novel aryl-urea derivatives: synthesis, in-vitro, in-silico and SAR studies” (Scientific Reports, 2023)
Values after ≈ are worked out from the molar mass of the structure shown. Read-outs that look alike come from different tables or passages of the source.

Key:
Format in all cases: cell-based
[1] = tested on: Escherichia coli; assay: Agar well diffusion, E. coli
[2] = tested on: prostate cancer (PC3); assay: cells; conditions: Homo sapiens, 48 h; for mortality at 100 µg/mL: 100 μg/mL
[3] = tested on: colon cancer (HCT116); assay: cells; conditions: Homo sapiens; for mortality at 100 µg/mL: HCT-116, 48 h, 100 μg/mL
[4] = tested on: Bacillus mycoides; assay: microbe, parasite or virus in culture
[5] = tested on: osteosarcoma cell line (HOS); assay: cells; conditions: Homo sapiens, 48 h; for mortality at 100 µg/mL: 100 μg/mL
[6] = tested on: Candida albicans; assay: Agar well diffusion, C. albicans
[7] = tested on: hepatocellular carcinoma cell line (HePG2); assay: cells; conditions: Homo sapiens, 100 μg/mL, 48 h
[8] = tested on: skin cancer (A431); assay: cells; conditions: Homo sapiens, A-431, 100 μg/mL, 48 h
[9] = tested on: human lung carcinoma (A549); assay: cells; conditions: for mortality at 100 µg/mL: A549, 48 h, 100 μg/mL
[10] = tested on: pancreatic cancer cell line (PACA2); assay: cells; conditions: Homo sapiens, PaCa-2, 48 h; for mortality at 100 µg/mL: 100 μg/mL
[11] = in vitro; conditions: human, BJ1 normal skin fibroblast cells, 100 μg/mL
[12] = tested on: Candida albicans; assay: MIC by serial dilution (agar wells), C. albicans
[13] = tested on: Bacillus mycoides; assay: microbe, parasite or virus in culture; remark: listed apart in the source
[14] = tested on: Escherichia coli; assay: MIC by serial dilution (agar wells), E. coli
[15] = Escherichia coli, read-out: Inhibition zones diameter
[16] = Bacillus mycoides, read-out: Inhibition zones diameter
[17] = Candida albicans, read-out: Inhibition zones diameter
[18] = 0.00488 mg/mL, 150 µL in DMSO, 15 mm agar well
[19] = 0.00975 mg/mL, 150 µL in DMSO, 15 mm agar well
[20] = 0.0195 mg/mL, 150 µL in DMSO, 15 mm agar well
[21] = 0.0391 mg/mL, 150 µL in DMSO, 15 mm agar well
[22] = 0.0781 mg/mL, 150 µL in DMSO, 15 mm agar well
[23] = 0.1563 mg/mL, 150 µL in DMSO, 15 mm agar well
[24] = 0.3125 mg/mL, 150 µL in DMSO, 15 mm agar well
[25] = 0.625 mg/mL, 150 µL in DMSO, 15 mm agar well
[26] = 1.25 mg/mL, 150 µL in DMSO, 15 mm agar well
[27] = 2.50 mg/mL, 150 µL in DMSO, 15 mm agar well
[28] = 5.00 mg/mL, 150 µL in DMSO, 15 mm agar well
[29] = 10.0 mg/mL, 150 µL in DMSO, 15 mm agar well
[30] = read-out: Minimum inhibition concentration (MIC)

Compound: COc1cc(NC(=O)Nc2ccc(C)cc2)cc(OC)c1 [Compound 16, 1-[3,5-Dimethoxyphenyl]-3-(p-tolyl)urea]
- zone of inhibition at 10000 µg/mL [1, 15]: 16 ± 0.35 mm
- mortality at 100 µg/mL [2]: 44.6 ± 0.25%
- mortality at 100 µg/mL [3]: 5.9 ± 0.78%
- zone of inhibition at 10000 µg/mL [4, 16]: 16 ± 0.97 mm
- mortality at 100 µg/mL [5]: > 50%
- zone of inhibition at 10000 µg/mL [6, 17]: 16 ± 0.95 mm
- mortality at 100 µg/mL [7]: 34.2 ± 0.13%
- mortality at 100 µg/mL [8]: 40.3 ± 1.22%
- mortality at 100 µg/mL [9]: 35.9 ± 0.7%
- mortality at 100 µg/mL [10]: > 50%

Compound: Cc1ccc(NC(=O)Nc2ccc(OC(F)(F)F)cc2)cc1 [Compound 14, 1-(p-Tolyl)-3-[4-(trifluoromethoxy)phenyl]urea]
- zone of inhibition at 10000 µg/mL [1, 15]: 17 ± 0.81 mm
- mortality at 100 µg/mL [2]: 45.3 ± 1.28%
- mortality at 100 µg/mL [3]: 5.6 ± 0.47%
- zone of inhibition at 10000 µg/mL [4, 16]: 15 ± 0.25 mm
- mortality at 100 µg/mL [5]: 100%
- IC50 ([5]; MTT): 61.6 ± 0.81 µM
- zone of inhibition at 10000 µg/mL [6, 17]: 17 ± 0.27 mm
- mortality at 100 µg/mL [7]: 65.3 ± 1.44%
- mortality at 100 µg/mL [8]: 2.3 ± 0.66%
- mortality at 100 µg/mL [9]: 38.5 ± 1.41%
- mortality at 100 µg/mL [10]: 47.2 ± 1.47%

Compound: CC[C@H]1OC(=O)[C@H](C)[C@@H](O[C@H]2C[C@@](C)(OC)[C@@H](O)[C@H](C)O2)[C@H](C)[C@@H](O[C@@H]2O[C@H](C)C[C@H](N(C)C)[C@H]2O)[C@](C)(O)C[C@@H](C)C(=O)[C@H](C)[C@@H](O)[C@]1(C)O [Erythromycin, reference compound]
- zone of inhibition at 15 µg/disc ([1]; Escherichia coli, E. coli, reference antibiotic 15 mcg, read-out: Inhibition zones diameter): 29 ± 2.13 mm
- zone of inhibition at 15 µg/disc [4, 16]: 17 ± 0.15 mm
- zone of inhibition at 15 µg/disc ([6]; Candida albicans, C. albicans, reference antibiotic 15 mcg, read-out: Inhibition zones diameter): 25 mm

Compound: Cc1ccc(S(=O)(=O)NC(=O)Nc2ccccc2C(F)(F)F)cc1 [Compound 11, 4-Methyl-N-[(2-{trifluoromethyl}phenyl)carbamoyl]benzenesulfonamide]
- zone of inhibition at 10000 µg/mL [1, 15]: 27 ± 0.58 mm
- IC50 ([2]; MTT): 114.7 ± 0.21 µM
- mortality at 100 µg/mL [3]: > 75%
- IC50 ([3]; HCT-116, MTT, 48 h): 161.6 ± 0.24 µM
- Inhibition zones diameter ([4]; B. mycoides, 200 μL of 10 mg/mL in DMSO in 15 mm holes, overnight 37 °C): 31 ± 0.52 mm
- zone of inhibition at 10000 µg/mL [4, 16]: 31 mm
- mortality at 100 µg/mL [5]: 44.2 ± 1.11%
- mortality at 48 h, 100 µg/mL [11]: 19.2 ± 0.57%
- Inhibition zones diameter ([6]; C. albicans, 200 μL of 10 mg/mL in DMSO in 15 mm holes, overnight 37 °C): 32 ± 0.17 mm
- zone of inhibition at 10000 µg/mL [6, 17]: 32 mm
- mortality at 100 µg/mL [8]: 10.5 ± 1.13%
- zone of inhibition at 4.88 µg/mL [12, 18]: 0 mm
- zone of inhibition at 9.75 µg/mL [12, 19]: 0 mm
- zone of inhibition at 19.5 µg/mL [12, 20]: 0 mm
- zone of inhibition at 39.1 µg/mL [12, 21]: 0 mm
- zone of inhibition at 78.1 µg/mL [12, 22]: 16 mm
- zone of inhibition at 156.3 µg/mL [12, 23]: 17 mm
- zone of inhibition at 312.5 µg/mL [12, 24]: 20 mm
- zone of inhibition at 625 µg/mL [12, 25]: 22 mm
- zone of inhibition at 1250 µg/mL [12, 26]: 24 mm
- zone of inhibition at 2500 µg/mL [12, 27]: 25 mm
- zone of inhibition at 5000 µg/mL [12, 28]: 26 mm
- zone of inhibition at 10000 µg/mL [12, 29]: 28 mm
- MIC [12, 30]: 78.1 µg/mL (≈ 218 µM)
- IC50 ([9]; MTT, 48 h): 149.3 ± 0.23 µM
- zone of inhibition at 4.88 µg/mL ([13]; read-out: Inhibition zone): 0 mm
- zone of inhibition at 9.75 µg/mL ([13]; read-out: Inhibition zone): 0 mm
- zone of inhibition at 19.5 µg/mL ([13]; read-out: Inhibition zone): 0 mm
- zone of inhibition at 39.1 µg/mL ([13]; read-out: Inhibition zone): 15 mm
- zone of inhibition at 78.1 µg/mL ([13]; read-out: Inhibition zone): 16 mm
- zone of inhibition at 156.3 µg/mL ([13]; read-out: Inhibition zone): 16 mm
- zone of inhibition at 312.5 µg/mL ([13]; read-out: Inhibition zone): 17 mm
- zone of inhibition at 625 µg/mL ([13]; read-out: Inhibition zone): 17 mm
- zone of inhibition at 1250 µg/mL ([13]; read-out: Inhibition zone): 18 mm
- zone of inhibition at 2500 µg/mL ([13]; read-out: Inhibition zone): 22 mm
- zone of inhibition at 5000 µg/mL ([13]; read-out: Inhibition zone): 24 mm
- zone of inhibition at 10000 µg/mL ([13]; read-out: Inhibition zone): 27 mm
- MIC [13, 30]: 39.1 µg/mL (≈ 109 µM)
- IC50 ([10]; MTT): 80.7 µM
- zone of inhibition at 4.88 µg/mL [14, 18]: 0 mm
- zone of inhibition at 9.75 µg/mL [14, 19]: 0 mm
- zone of inhibition at 19.5 µg/mL [14, 20]: 0 mm
- zone of inhibition at 39.1 µg/mL [14, 21]: 0 mm
- zone of inhibition at 78.1 µg/mL [14, 22]: 0 mm
- zone of inhibition at 156.3 µg/mL [14, 23]: 16 mm
- zone of inhibition at 312.5 µg/mL [14, 24]: 18 mm
- zone of inhibition at 625 µg/mL [14, 25]: 20 mm
- zone of inhibition at 1250 µg/mL [14, 26]: 22 mm
- zone of inhibition at 2500 µg/mL [14, 27]: 24 mm
- zone of inhibition at 5000 µg/mL [14, 28]: 28 mm
- zone of inhibition at 10000 µg/mL [14, 29]: 30 mm
- MIC [14, 30]: 156 µg/mL (≈ 436 µM)

Compound: Colstin [reference compound]
- Inhibition zones diameter ([1]; E. coli, reference antibiotic 10 mcg): 0 mm
- Inhibition zones diameter [4]: 0 mm
- Inhibition zones diameter ([6]; C. albicans, reference antibiotic 10 mcg): 0 mm

Compound: COc1cc(NC(=O)NS(=O)(=O)c2ccc(C)cc2)cc(OC)c1 [Compound 10, N-[(3,5-Dimethoxyphenyl)carbamoyl]-4-methylbenzenesulfonamide]
- zone of inhibition at 10000 µg/mL [1, 15]: 22 ± 0.39 mm
- mortality at 100 µg/mL [2]: 35.2 ± 0.89%
- mortality at 100 µg/mL [3]: 37.5 ± 1.12%
- zone of inhibition at 10000 µg/mL [4, 16]: 24 ± 0.87 mm
- mortality at 100 µg/mL [5]: 12.3 ± 1.21%
- zone of inhibition at 10000 µg/mL [6, 17]: 21 ± 0.32 mm
- mortality at 100 µg/mL [8]: 23.5 ± 0.97%
- mortality at 100 µg/mL [9]: 34.2 ± 1.2%
- mortality at 100 µg/mL [10]: > 50%
